# Values quoted from earlier work, collected in patent publication US20090123956A1, “Measurement of the oxidants-antioxidants balance in liquids” (Samsung Electronics Co., Ltd., priority 2006, published 2009).
# Details: change in absorbance at 450 nm (reference 620 or 570 nm) at equivalent molar concentration, uric acid = 1
row,SMILES,relative activity in compare with uric acid
1,N[C@@H](CCC(=O)N[C@@H](CS)C(=O)NCC(=O)O)C(=O)O [GSH],about 1
2,Cc1c(C)c2c(c(C)c1O)CCC(C)(C(=O)O)O2 (stereo not drawn) [Trolox],about 1
3,O=C1O[C@H]([C@@H](O)CO)C(O)=C1O [vitamin C],about 1
